This note sets out measurements from patent US20260049071A1, “PROTEIN TYROSINE KINASE INHIBITOR AND MEDICAL USE THEREOF” (BEYANG THERAPEUTICS CO., LTD., priority 2022, published 2026).

Data set [1] relates to melanin. Briefly: Binding capacity of compounds to melanin. It counts as in vitro ADME. As to conditions: Sepia officinalis (cuttlefish), melanin suspension (1 mg/mL); 1 mg/mL melanin suspension in PBS pH 7.4, 2 μM compound, 2 h at 37° C.; read-out: Fu % (percentage of free drug, not bound to melanin). In short, it runs like this:
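Compound at 2 μM final incubated with 1 mg/mL Sepia melanin suspension in PBS pH 7.4 for 2 h at 37 °C with shaking; blank control in PBS with 0.1% BSA. Supernatant concentrations measured by LC-MS/MS; bound fraction from melanin versus control samples, free fraction as 100 − Fb.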

Data set [2] addresses EGFR (Homo sapiens (Human), UniProt P00533). The experiment in a line: Kinase inhibition, Mobility Shift Assay (EGFR). It counts as biochemical. Put shortly: (§1)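 Mobility shift assay: each kinase preincubated 10 min at room temperature with compound, then reacted with FAM-labeled peptide, MgCl2 and ATP at 28° C. for varying times. Substrate-to-product conversion read on Caliper; % inhibition normalised to no-kinase and DMSO controls, and IC50 fitted.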

Data set [3] concerns the target VEGFR2 autophosphorylation (pVEGFR2) in HUVEC cells (Homo sapiens (Human), UniProt P35968). The experiment in a line: Inhibition of VEGF-induced VEGFR2 autophosphorylation in HUVEC cells (ELISA). The format is cell-based. As to conditions: 50 ng/ml human VEGF, compound 1 h. The source says: Vascular endothelial growth factor receptor 2 (VEGFR2) is a primary receptor for VEGF-induced endothelial cell signaling. After ligand binding, VEGFR2 is autophosphorylated and activated. The main function of signaling from VEGFR2 is to induce vascularization during development and after tissue injury, and to bypass blocked blood vessels. Pathologically, VEGF and VEGFR2 are involved in tumor angiogenesis and vascular leakage. They are considered to be main participants in many different cancers and ocular diseases that accompany pathological neovascularization. This assay measured the ability of the compounds to inhibit VEGF-induced VEGFR2 autophosphorylation (pVEGFR2) in HUVEC cells by using ELISA.
Culture cells in a cell culture flask to reach a fusion degree of 60%-80% before cell inoculation. Dilute the cell suspension to […] with a pre-warmed complete medium. Add 80 μL of the cell suspension to all wells of a 96-well cell plate (Corning-3599); and incubate the plate overnight at 37° C. in the presence of 5% CO2. Dissolve the compound powder to 10 mM with DMSO and store it in a nitrogen cabinet. Compound dilution plate: Add a reference compound Ponatinib or a compound to be tested to a 96 V-well plate (Axygen-WIpp 2280) at concentrations achieved as follows: performing 3-fold gradient dilution starting from 5 mM (5 μL of 10 mM compound solution plus 5 μL of DMSO) for a total of 8 concentration points. […] Transfer 20 μL of the diluted compound from the intermediate plate to a cell plate. Then, incubate the cell plate for 1 h at 37° C. in the presence of 5% CO2. After the compound was treated for 1 h, add 25 μL of 250 ng/ml human VEGF at a final concentration of 50 ng/ml to a 96-well plate; and incubate the plate for 5 min at 37° C. in the presence of 5% CO2, centrifuge the plate for 10 min at 3,000 rpm, remove the medium and wash the cells once with 300 μL of pre-chilled DPBS per well. Then, centrifuge the plate for 10 min at 4,000 rpm, remove DPBS, and add 110 μL of pre-chilled 1× cell lysis buffer per well to the 96-well plate. Shake the plate for 40 min at 4° C. Then, freeze the plate in a refrigerator at −80° C. On the next day, remove the plate from the refrigerator at −80° C., thaw the plate, centrifuge the plate for 10 min at 3500 rpm, and add 100 μL of the supernatant per well to an ELISA plate. Seal the plate and incubate it for 2 h at 37° C. Wash the wells 4 times with 1× wash buffer. Add 100 μL of recombinant detection antibody per well. Seal the plate, incubate the plate for 1 h at 37° C., and repeat the step of plate washing. Add 100 μL of secondary antibody per well. Seal the plate, incubate the plate for 30 min at 37° C., and repeat the step of plate washing. Add 100 μL of TMB (protected from light) per well. Seal the plate, incubate the plate for 30 min at 37° C., and add 100 μL of the stop solution per well. Gently shake for 30 sec, measure the absorbance with a SpectraMax® 340 PC 384 Absorbance Microplate Reader within 30 min, and read an optical density value at 450 nm. Conduct data analysis using XL Fit software:
Conduct curve fitting using the 4 Parameter Logistic Model or Sigmoidal Dose-Response Model:
X indicating the log value of compound concentration, Y indicating the inhibition ratio (% inhibition), Top indicating the readout of the negative control wells, and bottom indicating the readout of the positive control well.

In data set [4] the target is KDR (VEGFR2) (Homo sapiens (Human), UniProt P35968). Briefly: Kinase inhibition, Mobility Shift Assay (VEGFR2). It counts as biochemical. Put shortly:
as §1

Sequence of EGFR (P00533 25-1210): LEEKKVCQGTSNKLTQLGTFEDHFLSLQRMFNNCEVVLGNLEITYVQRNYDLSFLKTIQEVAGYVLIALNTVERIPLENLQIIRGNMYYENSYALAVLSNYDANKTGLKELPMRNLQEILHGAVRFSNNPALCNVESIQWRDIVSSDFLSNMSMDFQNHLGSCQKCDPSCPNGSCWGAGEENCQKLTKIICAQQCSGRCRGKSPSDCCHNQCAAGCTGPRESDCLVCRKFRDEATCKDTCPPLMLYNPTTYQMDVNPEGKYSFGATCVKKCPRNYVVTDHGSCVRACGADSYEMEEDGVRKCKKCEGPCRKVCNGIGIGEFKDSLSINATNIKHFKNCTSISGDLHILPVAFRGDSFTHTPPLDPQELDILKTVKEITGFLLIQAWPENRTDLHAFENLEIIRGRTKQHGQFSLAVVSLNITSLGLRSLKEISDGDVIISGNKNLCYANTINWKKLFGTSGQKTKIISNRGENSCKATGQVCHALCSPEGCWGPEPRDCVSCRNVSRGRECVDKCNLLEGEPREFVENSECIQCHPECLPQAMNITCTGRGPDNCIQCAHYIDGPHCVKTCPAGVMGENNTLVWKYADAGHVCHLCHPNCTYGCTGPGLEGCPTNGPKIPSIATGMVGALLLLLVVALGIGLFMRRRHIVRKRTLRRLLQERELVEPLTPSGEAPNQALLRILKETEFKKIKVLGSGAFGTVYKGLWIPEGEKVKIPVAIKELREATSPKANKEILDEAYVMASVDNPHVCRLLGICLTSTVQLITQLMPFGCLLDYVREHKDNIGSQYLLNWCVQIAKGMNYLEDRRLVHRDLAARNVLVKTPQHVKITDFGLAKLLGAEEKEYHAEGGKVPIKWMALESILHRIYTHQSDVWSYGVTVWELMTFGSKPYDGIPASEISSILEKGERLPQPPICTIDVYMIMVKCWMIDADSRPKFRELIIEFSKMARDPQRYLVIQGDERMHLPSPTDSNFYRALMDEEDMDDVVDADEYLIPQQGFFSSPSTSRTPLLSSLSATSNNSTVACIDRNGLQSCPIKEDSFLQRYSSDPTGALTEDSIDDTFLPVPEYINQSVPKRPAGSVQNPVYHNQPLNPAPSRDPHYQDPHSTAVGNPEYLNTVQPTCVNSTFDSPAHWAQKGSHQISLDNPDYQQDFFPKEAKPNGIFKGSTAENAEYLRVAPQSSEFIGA
Sequence of KDR (VEGFR2) (P35968 790-1356): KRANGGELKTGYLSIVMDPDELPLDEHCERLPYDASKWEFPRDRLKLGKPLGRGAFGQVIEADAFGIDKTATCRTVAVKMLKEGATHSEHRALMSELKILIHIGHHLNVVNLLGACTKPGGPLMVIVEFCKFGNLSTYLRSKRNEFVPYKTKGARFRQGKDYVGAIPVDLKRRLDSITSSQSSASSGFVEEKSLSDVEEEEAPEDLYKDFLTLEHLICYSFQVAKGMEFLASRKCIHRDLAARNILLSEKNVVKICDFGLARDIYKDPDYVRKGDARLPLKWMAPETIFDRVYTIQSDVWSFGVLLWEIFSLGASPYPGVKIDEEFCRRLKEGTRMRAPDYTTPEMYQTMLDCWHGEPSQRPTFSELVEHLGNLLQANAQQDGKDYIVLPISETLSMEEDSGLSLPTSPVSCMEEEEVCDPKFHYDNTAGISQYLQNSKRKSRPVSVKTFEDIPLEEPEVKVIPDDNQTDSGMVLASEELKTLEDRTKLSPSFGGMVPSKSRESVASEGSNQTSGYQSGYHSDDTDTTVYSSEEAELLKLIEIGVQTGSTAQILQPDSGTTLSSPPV
Sequence of VEGFR2 autophosphorylation (pVEGFR2) in HUVEC cells (P35968 20-1356): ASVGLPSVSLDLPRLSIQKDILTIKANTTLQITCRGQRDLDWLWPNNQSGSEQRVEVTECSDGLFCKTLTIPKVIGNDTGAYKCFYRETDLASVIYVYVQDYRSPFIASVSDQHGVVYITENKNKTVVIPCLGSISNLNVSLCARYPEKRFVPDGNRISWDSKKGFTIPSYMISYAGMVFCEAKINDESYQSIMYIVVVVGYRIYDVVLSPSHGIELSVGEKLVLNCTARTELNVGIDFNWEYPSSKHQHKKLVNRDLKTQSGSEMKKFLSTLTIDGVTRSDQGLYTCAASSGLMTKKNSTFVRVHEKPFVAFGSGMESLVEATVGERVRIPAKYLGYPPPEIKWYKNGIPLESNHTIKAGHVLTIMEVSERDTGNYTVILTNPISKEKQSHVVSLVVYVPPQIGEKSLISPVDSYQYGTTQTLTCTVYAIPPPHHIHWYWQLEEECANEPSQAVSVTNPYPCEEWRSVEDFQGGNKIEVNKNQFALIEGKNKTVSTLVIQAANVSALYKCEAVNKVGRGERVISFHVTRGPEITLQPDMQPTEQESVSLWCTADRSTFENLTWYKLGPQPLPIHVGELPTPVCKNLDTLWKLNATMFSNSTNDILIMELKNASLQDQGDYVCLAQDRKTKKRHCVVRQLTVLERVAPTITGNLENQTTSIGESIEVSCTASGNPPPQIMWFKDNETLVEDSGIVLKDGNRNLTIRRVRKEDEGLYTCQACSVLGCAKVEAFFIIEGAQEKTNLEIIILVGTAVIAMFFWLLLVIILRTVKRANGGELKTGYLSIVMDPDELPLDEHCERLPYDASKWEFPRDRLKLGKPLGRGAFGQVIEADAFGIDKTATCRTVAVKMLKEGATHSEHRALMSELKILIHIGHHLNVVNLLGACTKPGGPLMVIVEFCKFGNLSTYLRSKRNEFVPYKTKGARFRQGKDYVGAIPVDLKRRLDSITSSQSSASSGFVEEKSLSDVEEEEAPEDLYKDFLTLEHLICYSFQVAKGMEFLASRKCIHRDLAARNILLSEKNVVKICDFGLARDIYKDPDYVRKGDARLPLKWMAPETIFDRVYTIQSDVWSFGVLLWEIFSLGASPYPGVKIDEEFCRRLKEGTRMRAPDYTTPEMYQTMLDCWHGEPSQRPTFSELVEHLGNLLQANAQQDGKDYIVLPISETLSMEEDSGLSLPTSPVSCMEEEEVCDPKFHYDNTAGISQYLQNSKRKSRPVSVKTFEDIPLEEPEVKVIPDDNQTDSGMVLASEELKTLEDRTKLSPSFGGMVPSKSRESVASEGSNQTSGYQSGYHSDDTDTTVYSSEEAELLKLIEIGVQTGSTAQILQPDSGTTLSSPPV

Regarding `O=C(NC1CC1)c1ccccc1Sc1ccc2c(/C=C/c3cnn(CCCN4CCCC4)c3)n[nH]c2c1` [Compound I-43, N-cyclopropyl-2-({3-[(E)-2-{1-[3-(pyrrolidin-1-yl)propyl]-1H-pyrazol-4-yl}vinyl]-1H-indazol-6-yl}thio)benzamide], the fraction unbound at 2 h, 2 μM in data set [1] is 0.01 to 0.05. Besides, the 50% inhibitory concentration (IC50) is 6000 to 60000 nM in data set [2], at most 1 nM in data set [3] and at most 1 nM in data set [4].

For `O=C(NC1CC1)c1ccccc1Sc1ccc2c(/C=C/c3ccc(CCN4CCCC4)cn3)n[nH]c2c1` [Compound I-55, N-cyclopropyl-2-({3-[(E)-2-{5-[2-(pyrrolidin-1-yl)ethyl]pyridin-2-yl}vinyl]-1H-indazol-6-yl}thio)benzamide], the fraction unbound at 2 h, 2 μM in data set [1] fell in the range of 0.01 to 0.05. Besides, the 50% inhibitory concentration (IC50) in data set [2] is 6000 to 60000 nM; in data set [3], at most 1 nM; in data set [4], at most 1 nM.

Take `O=C(NC1CC1)c1ccccc1Sc1ccc2c(/C=C/c3ccc(CCCN4CCCC4)cn3)n[nH]c2c1` [Compound I-59, N-cyclopropyl-2-({3-[(E)-2-{5-[3-(pyrrolidin-1-yl)propyl]pyridin-2-yl}vinyl]-1H-indazol-6-yl}thio)benzamide]: in data set [1], the fraction unbound at 2 h, 2 μM is 0.01 to 0.05. In addition, the results for the IC50 in data set [2], in data set [3] and in data set [4] were 6000 to 60000 nM, at most 1 nM and at most 1 nM, respectively.

For the compound `O=C(NC1CC1)c1ccccc1Sc1ccc2c(/C=C/c3cnn(CCN4CCCC4)c3)n[nH]c2c1` [Compound I-61, N-cyclopropyl-2-({3-[(E)-2-{1-[2-(pyrrolidin-1-yl)ethyl]-1H-pyrazol-4-yl}vinyl]-1H-indazol-6-yl}thio)benzamide], the fraction unbound at 2 h, 2 μM in data set [1] lay in the range of 0.01 to 0.05. Further, the results for the IC50 in data set [2], in data set [3] and in data set [4] were 6000 to 60000 nM, at most 1 nM and 1 to 10 nM, respectively.

For the compound `O=C(NC1CC1)c1cccc(F)c1Sc1ccc2c(/C=C/c3ccc(CN4CCCC4)cn3)n[nH]c2c1` [Compound I-67], the fraction unbound at 2 h, 2 μM in data set [1] is above 0.05. The half-inhibitory concentration (IC50) in data set [2] was 6000 to 60000 nM; in data set [3], at most 1 nM; in data set [4], 1 to 10 nM.

Regarding `CCN(CC)Cc1ccc(/C=C/c2n[nH]c3cc(Sc4ccccc4C(=O)NC4CC4)ccc23)nc1` [Compound I-78, N-cyclopropyl-2-({3-[(E)-2-{5-[(diethylamino)methyl]pyridin-2-yl}vinyl]-1H-indazol-6-yl}thio)benzamide], the fraction unbound at 2 h, 2 μM in data set [1] is 0.01 to 0.05. Further, the results for the IC50 in data set [2], in data set [3] and in data set [4] were 6000 to 60000 nM, at most 1 nM and at most 1 nM, respectively.

For the compound `O=C(NC1CC1)c1cc(F)ccc1Sc1ccc2c(/C=C/c3ccc(CN4CCCC4)cn3)n[nH]c2c1` [Compound I-80, N-cyclopropyl-5-fluoro-2-({3-[(E)-2-{5-[(pyrrolidin-1-yl)methyl]pyridin-2-yl}vinyl]-1H-indazol-6-yl}thio)benzamide], the fraction unbound at 2 h, 2 μM in data set [1] lay within 0.01 to 0.05. Moreover, the IC50 in data set [2] was 6000 to 60000 nM; in data set [3] it was at most 1 nM; in data set [4], at most 1 nM.

As to `CCN(CC)Cc1ccc(/C=C/c2n[nH]c3cc(Sc4cc(F)ccc4C(=O)NC4CC4)ccc23)nc1` [Compound I-83, N-cyclopropyl-2-({3-[(E)-2-{5-[(diethylamino)methyl]pyridin-2-yl}vinyl]-1H-indazol-6-yl}thio)-4-fluorobenzamide], the fraction unbound at 2 h, 2 μM in data set [1] was above 0.05. In addition, the IC50 is 6000 to 60000 nM in data set [2], at most 1 nM in data set [3] and at most 1 nM in data set [4].

Consider `CCN(CC)Cc1ccc(/C=C/c2n[nH]c3cc(Sc4ccc(F)cc4C(=O)NC4CC4)ccc23)nc1` [Compound I-84, N-cyclopropyl-2-({3-[(E)-2-{5-[(diethylamino)methyl]pyridin-2-yl}vinyl]-1H-indazol-6-yl}thio)-5-fluorobenzamide], for which the fraction unbound at 2 h, 2 μM in data set [1] is above 0.05. Further, the half-inhibitory concentration (IC50) in data set [2] is 6000 to 60000 nM; in data set [3], at most 1 nM; in data set [4] it was 1 to 10 nM.

In the case of `CCNC(=O)c1ccccc1Sc1ccc2c(/C=C/c3ccc(CN(CC)CC)cn3)n[nH]c2c1` [Compound I-86, 2-({3-[(E)-2-{5-[(diethylamino)methyl]pyridin-2-yl}vinyl]-1H-indazol-6-yl}thio)-N-ethylbenzamide], in data set [1], the fraction unbound at 2 h, 2 μM fell in the range of 0.01 to 0.05. The IC50 in data set [2] was 6000 to 60000 nM; in data set [3] it was at most 1 nM; in data set [4], at most 1 nM.

As to `CCN(CC)Cc1ccc(/C=C/c2n[nH]c3cc(Sc4ccccc4C(=O)NC)ccc23)nc1` [Compound I-90, 2-({3-[(E)-2-{5-[(diethylamino)methyl]pyridin-2-yl}vinyl]-1H-indazol-6-yl}thio)-N-methylbenzamide], in data set [1], the fraction unbound at 2 h, 2 μM is 0.01 to 0.05. In addition, the concentration for half-maximal inhibition (IC50) is 6000 to 60000 nM in data set [2], at most 1 nM in data set [3] and 1 to 10 nM in data set [4].

Take `CCN(CC)Cc1ccc(/C=C/c2n[nH]c3cc(Sc4ccccc4C(=O)NCC(F)(F)F)ccc23)nc1` [Compound I-100, 2-({3-[(E)-2-{5-[(diethylamino)methyl]pyridin-2-yl}vinyl]-1H-indazol-6-yl}thio)-N-(2,2,2-trifluoroethyl)benzamide]: the fraction unbound at 2 h, 2 μM in data set [1] is above 0.05. In addition, the IC50 in data set [2] is 6000 to 60000 nM; in data set [3] it was at most 1 nM; in data set [4], 1 to 10 nM.

As for `CCNC(=O)c1cc(F)ccc1Sc1ccc2c(/C=C/c3cnn(CCCN4CCCC4)c3)n[nH]c2c1` [Compound I-104, N-ethyl-5-fluoro-2-({3-[(E)-2-{1-[3-(pyrrolidin-1-yl)propyl]-1H-pyrazol-4-yl}vinyl]-1H-indazol-6-yl}thio)benzamide], the fraction unbound at 2 h, 2 μM in data set [1] was above 0.05. For the same compound, the IC50 in data set [2] is above 60000 nM; in data set [3], at most 1 nM; in data set [4] it was at most 1 nM.

Consider `CNC(=O)c1ccccc1Sc1ccc2c(/C=C/c3ccc(CCN4CCCC4)cn3)n[nH]c2c1` [Compound I-107, N-methyl-2-({3-[(E)-2-{5-[2-(pyrrolidin-1-yl)ethyl]pyridin-2-yl}vinyl]-1H-indazol-6-yl}thio)benzamide], for which, in data set [1], the fraction unbound at 2 h, 2 μM is 0.01 to 0.05. Also, the IC50 in data set [2] was 6000 to 60000 nM; in data set [3] it was at most 1 nM; in data set [4], 1 to 10 nM.

In the case of `CCN(CC)CCc1ccc(/C=C/c2n[nH]c3cc(Sc4ccc(F)cc4C(=O)NC4CC4)ccc23)nc1` [Compound I-109, N-cyclopropyl-2-({3-[(E)-2-{5-[2-(diethylamino)ethyl]pyridin-2-yl}vinyl]-1H-indazol-6-yl}thio)-5-fluorobenzamide], in data set [1], the fraction unbound at 2 h, 2 μM is above 0.05. The IC50 was 6000 to 60000 nM in data set [2], 1 to 5 nM in data set [3] and at most 1 nM in data set [4].
